Assay results taken from ChEMBL document CHEMBL5120960, “Unveiling the Structure-Activity Relationships at the Orthosteric Binding Site of P2X Ion Channels: The Route to Selectivity” (J Med Chem, 2022).

How the values were obtained:
Type in all cases: cell-based
P2X purinoceptor 2 [1] = molecular target: T1, P2X purinoceptor 2 (Homo sapiens, UniProt Q9UBL9); assay: […] activity at human P2X2R expressing CHO cells assessed as reduction in intracellular Ca2+ influx pretreated with Fluo-4 for 1 hr followed by compound addition and further incubated for 30 mins in presence of ATP by multimode plate reader analysis
T1 sequence (Q9UBL9 whole entry): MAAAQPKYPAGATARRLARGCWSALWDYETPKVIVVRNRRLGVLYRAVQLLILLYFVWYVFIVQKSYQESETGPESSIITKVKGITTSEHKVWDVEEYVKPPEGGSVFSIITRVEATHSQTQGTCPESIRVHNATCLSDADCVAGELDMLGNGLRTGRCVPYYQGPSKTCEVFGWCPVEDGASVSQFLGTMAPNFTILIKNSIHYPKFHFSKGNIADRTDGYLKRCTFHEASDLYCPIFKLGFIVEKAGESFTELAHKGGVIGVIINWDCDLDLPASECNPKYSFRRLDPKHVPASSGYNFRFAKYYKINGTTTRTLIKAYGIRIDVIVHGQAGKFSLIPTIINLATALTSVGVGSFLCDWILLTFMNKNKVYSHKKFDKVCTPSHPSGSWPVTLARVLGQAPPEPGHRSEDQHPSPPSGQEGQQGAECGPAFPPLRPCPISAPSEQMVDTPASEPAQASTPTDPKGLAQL

P2X purinoceptor 3 [2] = molecular target: T2, P2X purinoceptor 3 (Homo sapiens, UniProt P56373); assay: Antagonist activity at human P2X3R expressing CHO cells assessed as reduction in intracellular Ca2+ influx pretreated with Fluo-4 for 1 hr followed by compound addition and further incubated for 30 mins in presence of ATP by multimode plate reader analysis
T2 sequence (P56373 whole entry): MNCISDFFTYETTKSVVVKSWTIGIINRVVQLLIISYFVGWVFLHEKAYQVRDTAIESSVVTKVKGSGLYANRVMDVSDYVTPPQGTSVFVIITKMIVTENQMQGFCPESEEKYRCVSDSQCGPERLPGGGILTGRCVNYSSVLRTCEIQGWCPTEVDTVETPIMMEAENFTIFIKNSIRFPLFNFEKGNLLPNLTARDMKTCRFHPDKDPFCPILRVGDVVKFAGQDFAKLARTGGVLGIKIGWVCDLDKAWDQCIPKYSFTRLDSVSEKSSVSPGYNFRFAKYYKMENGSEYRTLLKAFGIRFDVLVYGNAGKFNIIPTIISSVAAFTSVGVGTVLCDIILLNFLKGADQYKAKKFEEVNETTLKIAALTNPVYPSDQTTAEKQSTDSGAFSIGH

[3] = molecular target: T3, P2X2/P2X3 heterotrimeric receptor (Homo sapiens, UniProt P56373+Q9UBL9); assay: Antagonist activity at human P2X2R/P2X3R expressing CHO cells assessed as reduction in intracellular Ca2+ influx pretreated with Fluo-4 for 1 hr followed by compound addition and further incubated for 30 mins in presence of ATP by multimode plate reader analysis
T3 sequence (Q9UBL9 whole entry): T1 sequence (Q9UBL9 whole entry)
T3 sequence (P56373 whole entry): T2 sequence (P56373 whole entry)

P2X purinoceptor 1 [4] = molecular target: T4, P2X purinoceptor 1 (Homo sapiens, UniProt P51575); assay: Antagonist activity at human P2X1R expressing CHO cells assessed as reduction in intracellular Ca2+ influx pretreated with Fluo-4 for 1 hr followed by compound addition and further incubated for 30 mins in presence of ATP by multimode plate reader analysis
T4 sequence (P51575 whole entry): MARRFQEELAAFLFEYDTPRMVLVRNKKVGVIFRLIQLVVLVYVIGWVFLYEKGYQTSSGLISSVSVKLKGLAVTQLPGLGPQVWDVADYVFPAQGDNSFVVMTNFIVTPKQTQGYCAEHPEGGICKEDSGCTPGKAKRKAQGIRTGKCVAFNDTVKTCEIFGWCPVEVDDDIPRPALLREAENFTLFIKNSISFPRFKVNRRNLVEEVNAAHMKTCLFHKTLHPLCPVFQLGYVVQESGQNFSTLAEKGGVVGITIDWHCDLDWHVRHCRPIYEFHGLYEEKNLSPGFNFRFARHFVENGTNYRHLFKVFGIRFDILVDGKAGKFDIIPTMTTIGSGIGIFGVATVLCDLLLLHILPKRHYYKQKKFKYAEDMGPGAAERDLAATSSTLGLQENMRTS

P2X purinoceptor 7 [5] = molecular target: T5, P2X purinoceptor 7 (Homo sapiens, UniProt Q99572); assay: […] activity at human P2X7R expressing HEK293 cells assessed as reduction in intracellular Ca2+ influx pretreated with Fluo-4 for 1 hr followed by compound addition and further incubated for 30 mins in presence of ATP by multimode plate reader analysis
T5 sequence (Q99572 whole entry): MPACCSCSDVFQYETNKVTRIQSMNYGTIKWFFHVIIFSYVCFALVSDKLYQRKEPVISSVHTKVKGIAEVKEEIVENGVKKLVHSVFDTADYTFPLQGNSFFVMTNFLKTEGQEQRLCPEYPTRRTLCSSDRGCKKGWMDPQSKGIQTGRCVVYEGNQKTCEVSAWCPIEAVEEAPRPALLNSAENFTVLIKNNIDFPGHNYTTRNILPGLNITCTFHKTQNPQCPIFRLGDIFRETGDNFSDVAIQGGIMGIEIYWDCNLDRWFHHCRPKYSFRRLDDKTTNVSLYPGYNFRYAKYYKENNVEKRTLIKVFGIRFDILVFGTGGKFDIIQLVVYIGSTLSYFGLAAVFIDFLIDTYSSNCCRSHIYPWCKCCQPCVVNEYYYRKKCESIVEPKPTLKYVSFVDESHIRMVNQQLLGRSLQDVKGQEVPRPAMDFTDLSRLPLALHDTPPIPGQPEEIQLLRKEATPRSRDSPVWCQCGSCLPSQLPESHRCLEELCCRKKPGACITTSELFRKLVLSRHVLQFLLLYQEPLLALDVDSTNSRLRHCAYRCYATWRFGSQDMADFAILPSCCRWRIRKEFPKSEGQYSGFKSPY

P2X purinoceptor 4 [6] = molecular target: T6, P2X purinoceptor 4 (Homo sapiens, UniProt Q99571); assay: Antagonist activity at human P2X4R expressing HEK293 cells assessed as reduction in intracellular Ca2+ influx pretreated with Fluo-4 for 1 hr followed by compound addition and further incubated for 30 mins in presence of ATP by multimode plate reader analysis
T6 sequence (Q99571 whole entry): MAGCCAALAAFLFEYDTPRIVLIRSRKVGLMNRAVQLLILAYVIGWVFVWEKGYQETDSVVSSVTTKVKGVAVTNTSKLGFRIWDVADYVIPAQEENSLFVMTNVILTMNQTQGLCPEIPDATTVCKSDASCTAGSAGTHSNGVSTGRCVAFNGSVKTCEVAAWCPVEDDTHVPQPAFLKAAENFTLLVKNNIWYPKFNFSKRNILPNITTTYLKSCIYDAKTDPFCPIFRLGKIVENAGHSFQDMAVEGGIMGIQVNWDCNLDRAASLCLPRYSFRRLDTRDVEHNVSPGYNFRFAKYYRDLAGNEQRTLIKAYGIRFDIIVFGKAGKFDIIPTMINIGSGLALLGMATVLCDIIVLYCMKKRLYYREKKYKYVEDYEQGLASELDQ

P2X purinoceptor 3 [7] = molecular target: T2, P2X purinoceptor 3; assay: […] activity at human P2X3R expressing CHO cells assessed as reduction in intracellular Ca2+ influx pretreated with Fluo-4 for 1 hr followed by compound addition and further incubated for 30 mins in presence of ATP by multimode plate reader analysis
P2X purinoceptor 7 [8] = molecular target: T5, P2X purinoceptor 7; assay: […] activity at human P2X7R expressed in HEK293 cells assessed as reduction in YO-PRO-1 iodide dye uptake preincubated for 30 mins followed by YO-PRO-1 iodide addition and measured after 2 hrs by fluorescence based multimode plate reader analysis
P2X purinoceptor 4 [9] = molecular target: T6, P2X purinoceptor 4; assay: […] activity at human P2X4R expressing HEK293 cells assessed as reduction in intracellular Ca2+ influx pretreated with Fluo-4 for 1 hr followed by compound addition and further incubated for 30 mins in presence of ATP by multimode plate reader analysis
P2X purinoceptor 7 [10] = molecular target: T5, P2X purinoceptor 7; assay: Antagonist activity at human P2X7R expressing HEK293 cells assessed as reduction in intracellular Ca2+ influx pretreated with Fluo-4 for 1 hr followed by compound addition and further incubated for 30 mins in presence of ATP by multimode plate reader analysis
[11] = molecular target: T3, P2X2/P2X3 heterotrimeric receptor; assay: […] activity at human P2X2R/P2X3R expressing CHO cells assessed as reduction in intracellular Ca2+ influx pretreated with Fluo-4 for 1 hr followed by compound addition and further incubated for 30 mins in presence of ATP by multimode plate reader analysis
P2X purinoceptor 2 [12] = molecular target: T1, P2X purinoceptor 2; assay: Antagonist activity at human P2X2R expressing CHO cells assessed as reduction in intracellular Ca2+ influx pretreated with Fluo-4 for 1 hr followed by compound addition and further incubated for 30 mins in presence of ATP by multimode plate reader analysis
P2X purinoceptor 1 [13] = molecular target: T4, P2X purinoceptor 1; assay: […] activity at human P2X1R expressing CHO cells assessed as reduction in intracellular Ca2+ influx pretreated with Fluo-4 for 1 hr followed by compound addition and further incubated for 30 mins in presence of ATP by multimode plate reader analysis

Nc1ncnc2c1ncn2[C@@H]1O[C@H](COP(=O)(O)OP(=O)(O)OP(=O)(O)O)[C@@H](OC(=O)c2cccc3ccccc23)[C@H]1OC(=O)c1cccc2ccccc12 showed an EC50 (P2X purinoceptor 2 [1]) greater than 100 µM, an IC50 (P2X purinoceptor 3 [2]) of 18.6 µM and an IC50 [3] of 11.5 µM. For the same compound, the IC50 (P2X purinoceptor 1 [4]) was 15.8 µM, the EC50 (P2X purinoceptor 7 [5]) was 16.6 µM and the IC50 (P2X purinoceptor 4 [6]) was 6.31 µM. The EC50 (P2X purinoceptor 3 [7]) was greater than 100 µM, the EC50 (P2X purinoceptor 7 [8]) was 22.4 µM and the EC50 (P2X purinoceptor 4 [9]) was greater than 100 µM. It also gave an IC50 (P2X purinoceptor 7 [10]) greater than 100 µM, an EC50 [11] greater than 100 µM and an IC50 (P2X purinoceptor 2 [12]) of 10 µM. The EC50 (P2X purinoceptor 1 [13]) was greater than 100 µM.
